Data from patent US4237311A, “2-Methyl-1-(substituted)phenyl-2-propyl esters of 2-aminopropanoic acid” (priority 1974, dated 1980).

Experiments:
[1] = test system: 5-HT uptake (5-hydroxytryptamine); test: Inhibition of the uptake of 14C-5-HT (drug given i.p. in vivo, uptake in midbrain slices); set-up: species or system mice; details: ip, 0.5 h, half an hour before killing, mouse midbrain slices, 5-HT 1×10^-7 M, 5 min incubation, read-out: Inhibition (50%) of uptake in vivo, 5-HT (ED50)
Experimental: (§1) 1. Inhibition of the uptake of carbon-14 5-HT and tritiated noradrenaline in vitro and in vivo
The method is described by Ross, Renyi and Ogren in European Journal of Pharmacology 17 (1972), 107-112. […] The drugs were administered intraperitoneally half an hour before the animals were killed and the midbrain was taken out and sliced and incubated in a mixture consisting of, per 100 mg of brain slices, 0.2 n-mole of ^14 C--5--HT, 0.2 n-mole of ^3 H--NA and 11 μmole of glucose in 2 ml of Krebs-Henseleit buffer, pH 7.4. The incubation time was 5 minutes. The radioactive amines taken up in the slices were dissolved in Soluene-350®(Packard) and the amounts were determined with the double labelling technique by liquid scintillation. The dose producing 50 percent decrease of the active uptake (ED50) was determined graphically from dose response curves. Active uptake is defined as that part of the radioactive uptake which is inhibited by a high concentration of cocaine. All doses were given at least to four animals.

male rats = test: Drug induced arrhythmias in rats; type: in vivo; details: male rats anesthetized with Nembutal, stepwise increased doses
Text: DRUG INDUCED ARRHYTHMIAS IN RATS
Test drugs were intravenously administered to male rats anesthetized with Nembutal®. The doses were increased stepwise up to the lethal dose and the first dose which induced arrhythmia was noted.

[2] = test system: NA uptake (noradrenaline); test: Inhibition of the uptake of tritiated noradrenaline (drug given i.p. in vivo, uptake in midbrain slices); set-up: species or system mice; details: ip, 0.5 h, half an hour before killing, mouse midbrain slices, noradrenaline 1×10^-7 M, 5 min incubation, read-out: Inhibition (50%) of uptake in vivo, NA (ED50)
Experimental: as §1
The drugs were administered intraperitoneally half an hour before the animals were killed and the midbrain was taken out and sliced and incubated in a mixture consisting of, per 100 mg of brain slices, 0.2 n-mole of ^14 C--5--HT, 0.2 n-mole of ^3 H--NA and 11 μmole of glucose in 2 ml of Krebs-Henseleit buffer, pH 7.4. The incubation time was 5 minutes. The radioactive amines taken up in the slices were dissolved in Soluene-350®(Packard) and the amounts were determined with the double labelling technique by liquid scintillation. The dose producing 50 percent decrease of the active uptake (ED50) was determined graphically from dose response curves. Active uptake is defined as that part of the radioactive uptake which is inhibited by a high concentration of cocaine. All doses were given at least to four animals.

in vivo = details: mouse, iv, mice, killing 50% within 7 days, read-out: Acute toxicity LD50
Experimental: ACUTE TOXICITY, BEHAVIOUR AND ANTICHOLINERGIC STUDY IN MICE
The compounds were given by intravenous route to 6 mice. LD50 is the dose which kills 50% of the animals within 7 days. Seizures, gait, sedation and gripstrength were recorded.

5-HTP response = 5-HTP response potentiation test; type: in vivo, mice; details: for minimal effective dose: Mus musculus, ip, test drug one hour (or 4, 24 hours) before dl-5-HTP 90 mg/kg i.v., mice, read-out: Potentiation of 5-HTP, effective dose (least dose producing maximal score +3 in all animals)
Text: 1. 5-HTP response potentiation test
Inhibition of the uptake of 5-HT potentiates the effects of administered 5-hydroxytryptophan (5-HTP) probably by increasing the amount of 5-HT at the receptor. […] The strength of the syndrome is scored from 0 to +3.

[3] = test system: 5-hydroxytryptamine (5-HT) re-uptake mechanism; details: central nervous system; cited from earlier work
man = details: cited from earlier work
[4] = test system: noradrenaline (NA) re-uptake mechanism; details: central nervous system; cited from earlier work

Row | SMILES | ED50 [1] [mg/kg] | Arrhythmia, accumulated i.v. dose where there are signs of arrhythmia (male rats) [mg/kg] | ED50 [2] [mg/kg] | LD50 at 168 h (in vivo) [mg/kg] | minimal effective dose (5-HTP response) [mg/kg] | inhibition of the re-uptake mechanism of 5-hydroxytryptamine (in words) [3] | anticholinergic effect and symptoms (in words) (man) | mood and psychomotor effect (in words) (man) | onset of the antidepressive effect (man; treatment with imipramine) | inhibition of the re-uptake mechanism of noradrenaline (in words) [4] | potentiation of dl-5-HTP by the reference drug (in words) (5-HTP response; control groups, reference)
1 | CC(N)C(=O)OC(C)(C)Cc1ccc(Cl)cc1.Cl (centres unmarked) [GEA 654, 2-aminopropanoic acid 1-(4-chlorophenyl)-2-methyl-2-propylester hydrochloride] | 15 | 63 | > 40 | 70 | 1 | – | – | – | – | – | –
2 | CC(N)C(=O)OC(C)(C)Cc1ccc(Cl)c(Cl)c1 (centres unmarked) [GEA 699] | 15 | – | > 40 | – | 7 | – | – | – | – | – | –
3 | CC(N)C(=O)OC(C)(C)Cc1ccc(F)cc1 (centres unmarked) [GEA 822] | 30 | – | > 40 | – | – | – | – | – | – | – | –
4 | CC(N)C(=O)OC(C)(C)Cc1ccccc1 (centres unmarked) [GEA 916] | 15 | – | > 40 | – | 8 | – | – | – | – | – | –
5 | CC(N)C(=O)OC(C)(C)Cc1ccc(Br)cc1 (centres unmarked) [GEA 917] | 25 | – | > 40 | – | 5 | – | – | – | – | – | –
6 | CC(N)C(=O)OC(C)(C)Cc1cccc(Cl)c1 (centres unmarked) [GEA 935] | 5 | – | > 40 | – | 3 | – | – | – | – | – | –
7 | Cc1ccc(CC(C)(C)OC(=O)C(C)N)cc1 (centres unmarked) [GEA 937] | 10 | – | > 40 | – | 12 | – | – | – | – | – | –
8 | CN(C)CCCN1c2ccccc2CCc2ccccc21 [Imipramine] | 24 | 8 | 6 | – | 15 | inhibits the re-uptake mechanism of noradrenaline (NA) and 5-hydroxytryptamine (5-HT) | anticholinergic and causes anticholinergic symptoms such as dryness of the mouth, tremor, tachycardia and sweating | both mood elevating and psychomotor activating | about 3 weeks | inhibits the re-uptake mechanism of noradrenaline (NA) | constantly potentiated dl-5-HTP
